Values after ≈ are worked out from the molar mass of the structure shown.
Columns and labels:
Assay type in all cases: cell-based
A549 = assay: IC50 towards A549 cancer cell line; conditions: Homo sapiens
PC3 = assay: IC50 towards PC3 cancer cell line; conditions: Homo sapiens, PC-3
FaDu = assay: IC50 towards FaDu cancer cell line; conditions: Homo sapiens
MDA-MB-468 = assay: IC50 towards MDA-MB-468 cancer cell line; conditions: Homo sapiens
HeLa = assay: IC50 towards HeLa cancer cell line; conditions: Homo sapiens
p53 = assay: Upregulation of pro-apoptotic protein p53; conditions: compared to the control (untreated) cells
BAX = assay: Upregulation of pro-apoptotic protein BAX; conditions: compared to the control (untreated) cells
Caspase 3 = assay: Upregulation of pro-apoptotic protein Caspase 3; conditions: compared to the control (untreated) cells
Caspase 6 = assay: Upregulation of pro-apoptotic protein Caspase 6; conditions: compared to the control (untreated) cells
Caspase 8 = assay: Upregulation of pro-apoptotic protein Caspase 8; conditions: compared to the control (untreated) cells
Caspase 9 = assay: Upregulation of pro-apoptotic protein Caspase 9; conditions: compared to the control (untreated) cells
BCL-2 = assay: Downregulation of anti-apoptotic protein BCL-2; conditions: compared to the control (untreated) cells
MMP2 = assay: Downregulation of; conditions: compared to the control (untreated) cells
MMP9 = assay: Downregulation of; conditions: compared to the control (untreated) cells
COX-2 = assay: Downregulation of pro-inflammatory marker COX-2; conditions: compared to the control (untreated) cells
IL-6 = assay: Downregulation of; conditions: compared to the control (untreated) cells
IL-1β = assay: Downregulation of pro-inflammatory marker IL-1β; conditions: compared to the control (untreated) cells

Row | Compound | IC50 (A549) [µg/mL] | IC50 (PC3) [µg/mL] | IC50 (FaDu) [µg/mL] | IC50 (MDA-MB-468) [µg/mL] | IC50 (HeLa) [µg/mL] | upregulation of p53 (p53) [fold changes] | upregulation of BAX (BAX) [fold changes] | upregulation of Caspase 3 (Caspase 3) [fold changes] | upregulation of Caspase 6 (Caspase 6) [fold changes] | upregulation of Caspase 8 (Caspase 8) [fold changes] | upregulation of Caspase 9 (Caspase 9) [fold changes] | downregulation of BCL-2 (BCL-2) [fold changes] | downregulation of MMP2 (MMP2) [fold changes] | downregulation of MMP9 (MMP9) [fold changes] | downregulation of COX-2 (COX-2) [fold changes] | downregulation of IL-6 (IL-6) [fold changes] | downregulation of IL-1β (IL-1β) [fold changes]
1 | CCOc1ccc(Oc2ccc(/C=N/c3ccc([Se][Se]c4ccc(/N=C/c5ccc(Oc6ccc(OCC)cc6)cc5)cc4)cc3)cc2)cc1 [YS9, N,N′-(Diselanediylbis(4,1-phenylene))bis(1-(4-(4-ethoxyphenoxy)phenyl)methanimine)] | 4.4 (≈ 5.56 µM) | 12 (≈ 15.1 µM) | 4.73 (≈ 5.98 µM) | 6 (≈ 7.59 µM) | 4 (≈ 5.06 µM) | 3.50 | 1.95 | 5.82 | 10.37 | 3.16 | 2.41 | 0.35 | 0.31 | 0.48 | 0.37 | 0.48 | 0.46
2 | COc1cccc2c1C(=O)c1c(O)c3c(c(O)c1C2=O)C[C@@](O)(C(=O)CO)C[C@@H]3O[C@H]1C[C@H](N)[C@H](O)[C@H](C)O1 [doxorubicin, reference compound] |  | 5.83 (≈ 10.7 µM) | 13.1 (≈ 24.1 µM) |  |  |  |  |  |  |  |  |  |  |  |  |  | 

Source: patent publication US12329729B1, “Method of treating cancer in a subject” (IMAM MOHAMMAD IBN SAUD ISLAMIC UNIVERSITY, priority 2024, dated 2025)
